Source: US8338420B1, “Treatment of Parkinson's disease and enhancement of dopamine signal using PDE 10 inhibitor” (Mitsubishi Tanabe Pharma Corporation, priority 2002, dated 2012)

Test system: rat 6-hydroxydopamine model
Test: Rat 6-hydroxydopamine model, L-dopa induced rotational behaviors
Assay type: in vivo, SD rat
Settings: 1 mg/kg, i.v.; L-dopa 10 mg/kg i.p. + benserazide 2.5 mg/kg i.p.
Description: Preparation of rat 6-hydroxydopamine model According to the method described in the literature (Koga et al., European Journal of Pharmacology, vol. 408, pp. 249-255, 2000), 6-hydroxydopamine (6-OHDA) was administered in the rat's brain, to cause lesion in the substantia nigra of the brain, to thereby cause motor disability. As the rats, male SD (Sprague Dawley) rats (about 9 to 10 week old) were used. To these rats was administered desipramine (available from Sigma) (25 mg/kg, i.p.). Desipramine was used after being dissolved in distilled water to be 25 mg/ml. […]
One week after administration of 6-OHDA, apomorphine was administered, and rotational behaviors were confirmed to appear due to the lesion of substantia nigra by 6-OHDA in one hemisphere. […] Turnings were counted in every 5-minute interval, until rotational behaviors disappeared or until an event was repeated twice in which the number of turnings became 5 or less during the 5-minute interval. […]
To the model rat prepared in the above (1) (2 weeks after administration of apomorphine), L-dopa and benserazide (dopa decarboxylase inhibitor which inhibits degradation of L-dopa) were administered, and numbers of tunings were measured. […]
L-dopa was administered 30 minutes after benserazide administration, and turnings were counted after L-dopa administration. […]

## COc1ccc(-c2cc(N3CCCC3)nc(/C=C/c3nc(-n4ccnc4)c4ccccc4n3)n2)cc1OC [Compound A, 2-{(E)-2-[4-(1-imidazolyl)-quinazolin-2-yl]}ethenyl-4-(3,4-dimethoxy)phenyl-6-(pyrrolidin-1-yl)pyrimidine]
  L-dopa induced rotational behaviors, total number of turnings: tended to increase
  duration of L-dopa induced rotational behaviors: significantly prolonged
